# Experimental data: ChEMBL document CHEMBL1150870, “Trichoflectin, a bioactive azaphilone from the ascomycete Trichopezizella nidulus” (1998)
# Key:
# Type in all cases: functional
# Settings in all cases: read-out: IZ
# Rhizomucor miehei = assay: Antimicrobial activity against Mucor miehei at 50 ug/disk
# Bacillus subtilis = assay: Antimicrobial activity against Bacillus subtilis at 50 ug/disk
# Lachnellula = assay: Inhibition of DHN-melanin biosynthesis in Lachnellula sp. A32-89 assessed as pigment inhibition zone at 50 ug/disk by agar diffusion assay
Structure (SMILES),zone of inhibition at 50 µg/disc (Rhizomucor miehei),zone of inhibition at 50 µg/disc (Bacillus subtilis),zone of inhibition at 50 µg/disc (Lachnellula)
C/C=C/C1=CC2=CC(=O)[C@@]3(C)OC(=O)C(C(C)=O)=C3C2=CO1 [TRICHOFLECTIN],23 mm,23 mm,19 mm
COc1cc(O)c2c(c1)C(=O)C1=C(COC(C)=C1)C2=O,,,14 mm
CC1=CC2=C(CO1)C(=O)c1c(O)cc(O)cc1C2=O,,,14 mm
